Like-named read-outs stand apart in the source and are kept apart here. Ends that are not written are not given here.
How the values were obtained:
Format in all cases: cell-based
[1] = target: T1, HLA-B*2709 (Homo sapiens, UniProt P01889, D138H/D201E/E176V/E204Q/G107R/H137Y/K202T/N104T/N87E/Q56L/Q94K/R106L/R155S/R180L/S101D/S121N/S48T/Y140H/Y33H/Y91C); experiment: HLA/peptide complex stability assay, RMA-S cells transfected with HLA-B*2709; settings: for fluorescence index, B*2709: peptide 200 µM
T1 construct: expressed in transfected cells; host or cells: RMA-S (TAP-deficient murine cell line)

[2] = target: T2, HLA-B*2701 (Homo sapiens, UniProt P01889, D138H/D201E/D98Y/E176V/E204Q/G107R/H137Y/K202T/L105A/N104T/N87E/Q56L/Q94K/R106L/R155S/R180L/S101N/S121N/S48T/Y140D/Y33H/Y91C); experiment: HLA/peptide complex stability assay, RMA-S cells transfected with HLA-B*2701; settings: for fluorescence index, B*2701: peptide 200 µM
T2 construct: expressed in transfected cells; host or cells: RMA-S (TAP-deficient murine cell line)

[3] = target: T3, HLA-B*2705 (Homo sapiens, UniProt P01889, D138H/D201E/E176V/E204Q/G107R/H137Y/K202T/N104T/N87E/Q56L/Q94K/R106L/R155S/R180L/S101D/S121N/S48T/Y140D/Y33H/Y91C); experiment: HLA/peptide complex stability assay, RMA-S cells transfected with HLA-B*2705; settings: for fluorescence index, B*2705: peptide 200 µM
T3 construct: expressed in transfected cells; host or cells: RMA-S (TAP-deficient murine cell line)

[4] = target: HLA-B*2704 (Homo sapiens, UniProt P01889, A235G/D138H/D201E/E204Q/G107R/H137Y/K202T/N104T/N87E/Q56L/Q94K/R106L/R155S/R180L/S121N/S48T/Y140D/Y33H/Y91C); experiment: HLA/peptide complex stability assay, RMA-S cells transfected with HLA-B*2704; settings: for fluorescence index, B*2704: peptide 200 µM
[5] = target: T4, HLA-B*2706 (Homo sapiens, UniProt P01889, A235G/D201E/E204Q/G107R/H137Y/K202T/N104T/N87E/Q56L/Q94K/R106L/R155S/R180L/S121N/S48T/Y33H/Y91C); experiment: HLA/peptide complex stability assay, RMA-S cells transfected with HLA-B*2706; settings: for fluorescence index, B*2706: peptide 200 µM
T4 construct: expressed in transfected cells; host or cells: RMA-S (TAP-deficient murine cell line)

[6] = target: HLA-B*2702 (Homo sapiens, UniProt P01889, D138H/D201E/E176V/E204Q/G107R/H137Y/K202T/L105A/N104I/N87E/Q56L/Q94K/R106L/R155S/R180L/S101N/S121N/S48T/Y140D/Y33H/Y91C); experiment: HLA/peptide complex stability assay, RMA-S cells transfected with HLA-B*2702; settings: for fluorescence index, B*2702: peptide 200 µM
[7] = target: T5, HLA-B*2703 (Homo sapiens, UniProt P01889, D138H/D201E/E176V/E204Q/G107R/H137Y/K202T/N104T/N87E/Q56L/Q94K/R106L/R155S/R180L/S101D/S121N/S48T/Y140D/Y33H/Y83H/Y91C); experiment: HLA/peptide complex stability assay, RMA-S cells transfected with HLA-B*2703; settings: for fluorescence index, B*2703: peptide 200 µM
T5 construct: expressed in transfected cells; host or cells: RMA-S (TAP-deficient murine cell line)

[8] = mean ± S.D. of three to five independent experiments, SD
[9] = relative affinity (EC50 class), B*2701
[10] = relative affinity (EC50 class), B*2702
[11] = relative affinity (EC50 class), B*2703
[12] = Table 2, peptide concentration at 50% of maximum fluorescence, range 0.01–200 µM, transfected RMA-S cells, flow cytometry, mean ± S.D. of three to five independent experiments, - = no statistical difference in fluorescence index to negative control, SD, read-out: EC50, B*2709
[13] = Table 2, peptide concentration at 50% of maximum fluorescence, range 0.01–200 µM, transfected RMA-S cells, flow cytometry, mean ± S.D. of three to five independent experiments, - = no statistical difference in fluorescence index to negative control, SD, read-out: EC50, B*2701
[14] = Table 2, peptide concentration at 50% of maximum fluorescence, range 0.01–200 µM, transfected RMA-S cells, flow cytometry, mean ± S.D. of three to five independent experiments, - = no statistical difference in fluorescence index to negative control, SD, read-out: EC50, B*2705
[15] = Table 2, peptide concentration at 50% of maximum fluorescence, range 0.01–200 µM, transfected RMA-S cells, flow cytometry, mean ± S.D. of three to five independent experiments, - = no statistical difference in fluorescence index to negative control, SD, read-out: EC50, B*2704
[16] = Table 2, peptide concentration at 50% of maximum fluorescence, range 0.01–200 µM, transfected RMA-S cells, flow cytometry, mean ± S.D. of three to five independent experiments, - = no statistical difference in fluorescence index to negative control, SD, read-out: EC50, B*2706
[17] = Table 2, peptide concentration at 50% of maximum fluorescence, range 0.01–200 µM, transfected RMA-S cells, flow cytometry, mean ± S.D. of three to five independent experiments, - = no statistical difference in fluorescence index to negative control, SD, read-out: EC50, B*2702
[18] = Table 2, peptide concentration at 50% of maximum fluorescence, range 0.01–200 µM, transfected RMA-S cells, flow cytometry, mean ± S.D. of three to five independent experiments, - = no statistical difference in fluorescence index to negative control, SD, read-out: EC50, B*2703
[19] = relative affinity (EC50 class), B*2709
[20] = relative affinity (EC50 class), B*2705
[21] = relative affinity (EC50 class), B*2704
[22] = relative affinity (EC50 class), B*2706

## ARANNVLKNEM [A1-NP 184-194, monosubstituted Ala analog of HRSV NP 184-194, […]]
[1]; [8]
  fluorescence index, B*2709: 1.8±0.1
[2]; [8]
  fluorescence index, B*2701: 2.0±0.1
[3]; [8]
  fluorescence index, B*2705: 2.4±0.3
[4]; [8]
  fluorescence index, B*2704: 2.2±0.2
[5]; [8]
  fluorescence index, B*2706: 3.0±0.3
[6]; [8]
  fluorescence index, B*2702: 2.0±0.3
[7]; [8]
  fluorescence index, B*2703: 1.4±0.1

## RRANNVLKNEM [NP 184-194]
[1]; EC50, B*2709, SD
  EC50: 7 ± 1 µM
[2]; EC50, B*2701, SD
  EC50: 39 ± 9 µM
[2]; [9]
  EC50: 20 to 60 µM
[3]
  relative MHC class I affinity according to the EC50 value, in words (high, medium, low): high
[3]; EC50, B*2705, SD
  EC50: 20 ± 8 µM
[4]; EC50, B*2704, SD
  EC50: 19 ± 10 µM
[5]; EC50, B*2706, SD
  EC50: 2 ± 1 µM
[6]; EC50, B*2702, SD
  EC50: 43 ± 27 µM
[6]; [10]
  EC50: 20 to 60 µM
[7]; EC50, B*2703, SD
  EC50: 60 ± 29 µM
[7]; [11]
  EC50: 20 to 60 µM

## KRAVGIGAL [HIV gp160 500-508, reference compound]
[1]; [12]
  EC50: 8 ± 1 µM
[2]; [13]
  EC50: 17 ± 3 µM
[3]; [14]
  EC50: 12 ± 3 µM
[4]; [15]
  EC50: 24 ± 8 µM
[4]; Table 3, classes of EC50 from stabilization assay in transfected RMA-S cells, read-out: relative affinity (EC50 class), B*2704
  EC50: 20 to 60 µM
[5]; [16]
  EC50: 1 ± 1 µM
[6]; [17]
  EC50: 16 ± 6 µM
[7]; [18]
  EC50: 14 ± 7 µM

## RRYPDAVYL [MV F 438-466, reference compound]
[1]; [12]
  EC50: 4 ± 1 µM
[2]; [13]
  EC50: 5 ± 2 µM
[3]; [14]
  EC50: 3 ± 2 µM
[4]; [15]
  EC50: 18 ± 4 µM
[5]; [16]
  EC50: 2 ± 1 µM
[6]; [17]
  EC50: 11 ± 4 µM
[7]; [18]
  EC50: 4 ± 3 µM

## LRNEESEKMAK [P 198-208]
[1]; EC50, B*2709, SD
  EC50: 86 ± 12 µM
[1]; [19]
  EC50: 61 to 200 µM
[2]; read-out: EC50, B*2701
  EC50: > 200 µM
[2]; [9]
  EC50: > 200 µM
[3]
  relative MHC class I affinity according to the EC50 value, in words (high, medium, low): low affinity
[3]; EC50, B*2705, SD
  EC50: 98 ± 35 µM
[3]; [20]
  EC50: 61 to 200 µM
[4]; read-out: EC50, B*2704
  EC50: > 200 µM
[4]; [21]
  EC50: > 200 µM
[5]; EC50, B*2706
  EC50: > 200 µM
[5]; [22]
  EC50: > 200 µM
[6]; read-out: EC50, B*2702
  EC50: > 200 µM
[6]; [10]
  EC50: > 200 µM
[7]; EC50, B*2703
  EC50: > 200 µM
[7]; [11]
  EC50: > 200 µM

## VRNKDLNTL [M 169-177]
[1]; EC50, B*2709, SD
  EC50: 19 ± 7 µM
[2]; EC50, B*2701
  EC50: > 200 µM
[2]; [9]
  EC50: > 200 µM
[3]
  relative MHC class I affinity according to the EC50 value, in words (high, medium, low): low affinity
[3]; read-out: EC50, B*2705, SD
  EC50: 82 ± 20 µM
[3]; [20]
  EC50: 61 to 200 µM
[4]; EC50, B*2704, SD
  EC50: 56 ± 16 µM
[4]; [21]
  EC50: 20 to 60 µM
[5]; EC50, B*2706, SD
  EC50: 3 ± 1 µM
[6]; EC50, B*2702, SD
  EC50: 94 ± 25 µM
[6]; [10]
  EC50: 61 to 200 µM
[7]; EC50, B*2703
  EC50: > 200 µM
[7]; [11]
  EC50: > 200 µM

## ARYKGLLPKDI [A1-NP 195-205, monosubstituted Ala analog of HRSV NP 195-205, […]]
[1]; [8]
  fluorescence index, B*2709: 1.8±0.2
[2]; [8]
  fluorescence index, B*2701: 1.9±0.1
[3]; [8]
  fluorescence index, B*2705: 2.4±0.3
[4]; [8]
  fluorescence index, B*2704: 2.2±0.3
[5]; [8]
  fluorescence index, B*2706: 2.7±0.3
[6]; [8]
  fluorescence index, B*2702: 1.8±0.1
[7]; [8]
  fluorescence index, B*2703: 2.1±0.2

## HRFIYLINH [NS2 37-45]
[1]; EC50, B*2709, SD
  EC50: 33 ± 9 µM
[1]; [19]
  EC50: 20 to 60 µM
[2]; read-out: EC50, B*2701
  EC50: > 200 µM
[2]; [9]
  EC50: > 200 µM
[3]
  relative MHC class I affinity according to the EC50 value, in words (high, medium, low): high
[3]; EC50, B*2705, SD
  EC50: 7 ± 4 µM
[4]; EC50, B*2704, SD
  EC50: 78 ± 33 µM
[4]; [21]
  EC50: 61 to 200 µM
[5]; EC50, B*2706, SD
  EC50: 45 ± 19 µM
[5]; [22]
  EC50: 20 to 60 µM
[6]; EC50, B*2702, SD
  EC50: 77 ± 14 µM
[6]; [10]
  EC50: 61 to 200 µM
[7]; EC50, B*2703, SD
  EC50: 10 ± 5 µM
